# Laboratory results from US9233989B2, “Sila analogs of oxazolidinone derivatives and synthesis thereof” (Council of Scientific & Industrial Research, priority 2011, dated 2016).
# Like-named read-outs stand apart in the source and are kept apart here.
# Legend:
# MRSA 252 BAA 1720 = test: MIC by microbroth dilution method; type: cell-based, S. aureus
# E.faecium ATCC 49224 = test: MIC by microbroth dilution method; type: cell-based
# E.faecium 134 VRE = test: MIC by microbroth dilution method; type: cell-based
# E.faecalis ATCC 29212 = test: MIC by microbroth dilution method; type: cell-based
# MRSA ATCC 43300 = test: MIC by microbroth dilution method; type: cell-based, S. aureus
# [1] = system: Mycobacterium tuberculosis H37Rv; test: Anti-TB activity, colorimetric resazurin microtiter assay; type: cell-based; conditions: read-out: MIC, Minimum Inhibitory Concentration (90%)
# E.faecalis ATCC 19433 = test: MIC by microbroth dilution method; type: cell-based
# S.epidermis St 358 = test: MIC by microbroth dilution method; type: cell-based, S. epidermidis
# S.aureus DB00026 = test: MIC by microbroth dilution method; type: cell-based
# [2] = system: E.faecalis ATCC 51299(VRE&HLAR); test: MIC by microbroth dilution method; type: cell-based
# S.epidermidis ATCC 14990 = test: MIC by microbroth dilution method; type: cell-based
# MRSA 562 = test: MIC by microbroth dilution method; type: cell-based, S. aureus
# E.faecium ATCC 3567 = test: MIC by microbroth dilution method; type: cell-based
# E.faecium ATCC 19434 = test: MIC by microbroth dilution method; type: cell-based
# MRSA 0-2657 = test: MIC by microbroth dilution method; type: cell-based, S. aureus
# E.faecium 6A VRE = test: MIC by microbroth dilution method; type: cell-based
# MRSE ATCC 35983 = test: MIC by microbroth dilution method; type: cell-based, S. epidermidis
# [3] = system: S.aureus ATCC Newman 25904; test: MIC by microbroth dilution method; type: cell-based
# E.faecalis SP 346 VRE = test: MIC by microbroth dilution method; type: cell-based
# E.coli 7632 = test: MIC by microbroth dilution method; type: cell-based
# S.aureus2 (PVL + ve) = type: cell-based, S. aureus
# E.faecium 06076 VRE = test: MIC by microbroth dilution method; type: cell-based
# E.faecium ATCC 35667 = test: MIC by microbroth dilution method; type: cell-based
# S.epidermidis ATCC 12228 = test: MIC by microbroth dilution method; type: cell-based
# S.aureus ATCC 29213 = test: MIC by microbroth dilution method; type: cell-based
# MRSE ATCC 35984 = test: MIC by microbroth dilution method; type: cell-based, S. epidermidis
# [4] = system: S.aureus 13709 LNZ mutant; type: cell-based
# MRSA DB 00026 = test: MIC by microbroth dilution method; type: cell-based, S. aureus
# [5] = system: S.aureus ATCC 49775 PVL + ve; type: cell-based
# [6] = system: S.aureus ATCC 13709 Smith; test: MIC by microbroth dilution method; type: cell-based
# MRSA ATCC BAA 39 = test: MIC by microbroth dilution method; type: cell-based, S. aureus
# [7] = system: S.aureus ATCC 700699 Mu50; test: MIC by microbroth dilution method; type: cell-based
# [8] = Mycobacterium tuberculosis, H37RV
Compound,MIC (E.faecium 134 VRE) [mg/L],MIC (E.faecalis ATCC 29212) [mg/L],"MIC [1, 8] [mg/L]",MIC (E.faecalis ATCC 19433) [mg/L],MIC (S.epidermis St 358) [mg/L],MIC [2] [mg/L],MIC (S.epidermidis ATCC 14990) [mg/L],MIC (MRSA 562) [mg/L],MIC (E.faecium ATCC 3567) [mg/L],MIC (E.faecium ATCC 19434) [mg/L],MIC (MRSA 0-2657) [mg/L],MIC (E.faecium 6A VRE) [mg/L],MIC (MRSE ATCC 35983) [mg/L],MIC (E.faecalis SP 346 VRE) [mg/L],MIC (E.coli 7632) [mg/L],MIC (E.faecium 06076 VRE) [mg/L],MIC (S.aureus ATCC 29213) [mg/L],MIC (MRSE ATCC 35984) [mg/L],MIC [4] [mg/L],MIC (MRSA DB 00026) [mg/L],further results
"C[Si]1(C)CCN(c2ccc(N3C[C@H](Cn4ccnn4)OC3=O)cc2F)CC1 [NDS-10060, (R)-5-((1H-1,2,3-triazol-1-yl)methyl)-3-(4-(4,4-dimethyl-1,4-azasilinan-1-yl)-3-fluorophenyl)oxazolidin-2-one]",16,8,50,16,16,16,8,16,> 32,32,16,32,32,16,16,32,32,16,32,16,MIC (MRSA 252 BAA 1720): 32 mg/L; MIC (E.faecium ATCC 49224): 32 mg/L; MIC (MRSA ATCC 43300): 32 mg/L; MIC (S.aureus DB00026): 16 mg/L; MIC [3]: 16 mg/L; MIC (S.aureus2 (PVL + ve)): 16 mg/L; MIC (E.faecium ATCC 35667): 32 mg/L; MIC (S.epidermidis ATCC 12228): > 32 mg/L; MIC [5]: 16 mg/L; MIC [6]: 16 mg/L; MIC (MRSA ATCC BAA 39): 16 mg/L; MIC [7]: 32 mg/L
"C[Si]1(C)CCN(c2ccc(N3C[C@H](CN)OC3=O)cc2F)CC1 [NDS-10057, (S)-5-(aminomethyl)-3-(4-(4,4-dimethyl-1,4-azasilinan-1-yl)-3-fluorophenyl)oxazolidin-2-one]",32,> 32,25,32,> 32,16,> 32,> 32,> 32,32,> 32,> 32,> 32,> 32,32,> 32,> 32,32,> 32,> 32,MIC (MRSA 252 BAA 1720): > 32 mg/L; MIC (E.faecium ATCC 49224): 32 mg/L; MIC (MRSA ATCC 43300): > 32 mg/L; MIC (S.aureus DB00026): > 32 mg/L; MIC [3]: > 32 mg/L; MIC (S.aureus2 (PVL + ve)): > 32 mg/L; MIC (E.faecium ATCC 35667): 32 mg/L; MIC (S.epidermidis ATCC 12228): > 32 mg/L; MIC [5]: > 32 mg/L; MIC [6]: > 32 mg/L; MIC (MRSA ATCC BAA 39): > 32 mg/L; MIC [7]: > 32 mg/L
"CC(=O)NC[C@H]1CN(c2cc(F)c(N3CC[Si](C)(c4ccccc4)CC3)c(F)c2)C(=O)O1 [NDS-10068, (S)—N-((3-(3,5-difluoro-4-(4-methyl-4-phenyl-1,4-azasilinan-1-yl)phenyl)-2-oxooxazolidin-5-yl)methyl)acetamide]",–,–,> 100,–,–,–,–,–,–,–,–,–,–,–,–,–,–,–,–,–,–
"COC(=S)NC[C@H]1CN(c2cc(F)c(N3CC[Si](C)(C)CC3)c(F)c2)C(=O)O1 [NDS-10055, (S)—O-methyl(3-(4-(4,4-dimethyl-1,4-azasilinan-1-yl)-3,5-difluorophenyl)-2-oxooxazolidin-5-yl)methylcarbamothioate]",–,–,> 100,–,–,–,–,–,–,–,–,–,–,–,–,–,–,–,–,–,–
"C[Si]1(C)CCN(c2c(F)cc(N3C[C@H](CN)OC3=O)cc2F)CC1 [NDS-10054, (S)-5-(aminomethyl)-3-(4-(4,4-dimethyl-1,4-azasilinan-1-yl)-3,5-difluorophenyl)oxazolidin-2-one]",16,16,25,16,16,16,16,16,8,16,16,8,32,16,> 32,16,16,16,32,16,MIC (MRSA 252 BAA 1720): 16 mg/L; MIC (E.faecium ATCC 49224): 16 mg/L; MIC (MRSA ATCC 43300): 16 mg/L; MIC (S.aureus DB00026): 16 mg/L; MIC [3]: 16 mg/L; MIC (S.aureus2 (PVL + ve)): 16 mg/L; MIC (E.faecium ATCC 35667): 8 mg/L; MIC (S.epidermidis ATCC 12228): 32 mg/L; MIC [5]: 16 mg/L; MIC [6]: 16 mg/L; MIC (MRSA ATCC BAA 39): 16 mg/L; MIC [7]: 16 mg/L
"C[Si]1(c2ccccc2)CCN(c2c(F)cc(N3C[C@H](CN)OC3=O)cc2F)CC1 [NDS-10070, (S)-5-(aminomethyl)-3-(3,5-difluoro-4-(4-methyl-4-phenyl-1,4-azasilinan-1-yl)phenyl)oxazolidin-2-one]",> 32,32,50,32,> 32,32,> 32,32,> 32,32,> 32,> 32,> 32,> 32,32,> 32,> 32,32,> 32,> 32,MIC (MRSA 252 BAA 1720): > 32 mg/L; MIC (E.faecium ATCC 49224): 32 mg/L; MIC (MRSA ATCC 43300): > 32 mg/L; MIC (S.aureus DB00026): > 32 mg/L; MIC [3]: > 32 mg/L; MIC (S.aureus2 (PVL + ve)): > 32 mg/L; MIC (E.faecium ATCC 35667): 32 mg/L; MIC (S.epidermidis ATCC 12228): > 32 mg/L; MIC [5]: > 32 mg/L; MIC [6]: > 32 mg/L; MIC (MRSA ATCC BAA 39): > 32 mg/L; MIC [7]: > 32 mg/L
"CO[C@H]1/C=C/O[C@@]2(C)Oc3c(C)c(O)c4c(O)c(c(/C=N/N5CCN(C)CC5)c(O)c4c3C2=O)NC(=O)/C(C)=C\C=C\[C@H](C)[C@H](O)[C@@H](C)[C@@H](O)[C@@H](C)[C@H](OC(C)=O)[C@@H]1C [Rifampicin, reference compound]",–,–,–,–,–,–,–,–,–,–,–,–,–,–,–,–,–,–,–,–,"MIC ([1]; inhibition of Mycobacterium tuberculosis H37Rv growth, 7H9-OADC media, 37° C., visual readout): 0.3 mg/L"
"CCC(=O)NC[C@H]1CN(c2cc(F)c(N3CC[Si](C)(c4ccccc4)CC3)c(F)c2)C(=O)O1 [NDS-10069, (S)—N-((3-(3,5-difluoro-4-(4-methyl-4-phenyl-1,4-azasilinan-1-yl)phenyl)-2-oxooxazolidin-5-yl)methyl)propionamide]",–,–,50,–,–,–,–,–,–,–,–,–,–,–,–,–,–,–,–,–,–
"CC(C)(C)OC(=O)NC[C@H]1CN(c2cc(F)c(N3CC[Si](C)(C)CC3)c(F)c2)C(=O)O1 [NDS-10031, (S)-tert-butyl((3-(4-(4,4-dimethyl-1,4-azasilinan-1-yl)-3,5-difluorophenyl)-2-oxooxazolidin-5-yl)methyl)carbamate]",> 16,> 16,–,> 16,> 16,> 16,> 16,> 16,> 16,> 16,> 16,> 16,> 16,> 16,> 32,> 16,> 16,> 16,> 16,> 16,MIC (S.epidermidis ATCC 12228): > 16 mg/L; MIC [5]: > 16 mg/L; MIC [6]: > 16 mg/L; MIC (MRSA ATCC BAA 39): > 16 mg/L; MIC [7]: > 16 mg/L
"CC(=O)NC[C@H]1CN(c2ccc(N3CCOCC3)c(F)c2)C(=O)O1 [Linezolid, (S)—N-({3-[3-fluoro-4-(morpholin-4-yl)phenyl]-2-oxo-1,3-oxazolidin-5-yl}methyl)acetamide, reference compound]",2,0.5,–,1,2,1,2,2,2,2,1,2,1,2,1,2,2,1,2,2,MIC (MRSA 252 BAA 1720): 1 mg/L; MIC (E.faecium ATCC 49224): 2 mg/L; MIC (MRSA ATCC 43300): 4 mg/L; MIC (S.aureus DB00026): 1 mg/L; MIC [3]: 2 mg/L; MIC (S.aureus2 (PVL + ve)): 2 mg/L; MIC (E.faecium ATCC 35667): 4 mg/L; MIC [5]: 2 mg/L; MIC [6]: 2 mg/L; MIC (MRSA ATCC BAA 39): 2 mg/L; MIC [7]: 2 mg/L
